Data from patent publication US20230121086A1, “RORgT INHIBITOR, PREPARATION METHOD THEREOF AND USE THEREOF” (SUNSHINE LAKE PHARMA CO., LTD., priority 2020, published 2023).

Each compound was assayed against T1, RORγt (Homo sapiens, UniProt P51449) (assay: Fluorescence resonance energy transfer (FRET) test, inhibitory activity of RORγt). Conditions: FRET, B-RORγt LBD / Biotin-SRC1; read-out: IC50.
T1 construct: […]
T1 sequence (P51449 269-508 limits assumed): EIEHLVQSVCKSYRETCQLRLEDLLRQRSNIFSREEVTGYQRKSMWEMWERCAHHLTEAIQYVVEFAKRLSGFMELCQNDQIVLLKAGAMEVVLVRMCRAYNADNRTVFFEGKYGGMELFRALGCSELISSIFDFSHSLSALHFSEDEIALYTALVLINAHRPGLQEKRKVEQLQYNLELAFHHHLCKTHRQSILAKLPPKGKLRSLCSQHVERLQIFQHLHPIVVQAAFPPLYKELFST
Format: biochemical

Question: For `CCS(=O)(=O)c1ccc([C@H](CC#N)NC(=O)c2cnc(N3CC(Oc4ccc(C(F)(F)F)cc4)C[C@H]3COC(F)(F)F)nc2)cc1` (stereo in doubt) [Example 72, N-((S)-2-cyano-1-(4-(ethylsulfonyl)phenyl)ethyl)-2-((2S,4S)-2-((trifluoromethoxy)methyl)-4-(4-(trifluoromethyl)phenoxy)pyrrolidin-1-yl)pyrimidine-5-carboxamide], which IC50 is on record?
Answer: Its IC50 is 34 nM.

Question: With `CCS(=O)(=O)c1ccc(C(CC#N)NC(=O)c2ccc(N3CC(c4ccc(C(F)(F)F)cc4)C[C@H]3COC(F)F)cc2)cc1` (stereo in doubt) [Example 81, N—((S)-2-cyano-1-(4-(ethylsulfonyl)phenyl)ethyl)-4-((2S,4S)-2-((difluoromethoxy)methyl)-4-(4-(trifluoromethyl)phenyl)pyrrolidin-1-yl)benzamide] as the compound, how does the IC50 read?
Answer: The IC50 was 44 nM.

Question: How did the IC50 turn out when `CCS(=O)(=O)c1ccc([C@H](CC#N)NC(=O)c2ccc(N3CCC(Oc4ccc(C(F)(F)F)cc4)C3)c(F)c2)cc1` (stereo in doubt) [Example 83, N-((S)-2-cyano-1-(4-(ethylsulfonyl)phenyl)ethyl)-3-fluoro-4-((S)-3-(4-(trifluoromethyl)phenoxy)pyrrolidin-1-yl)benzamide] was run?
Answer: The IC50 was 91 nM.

Question: For `CCS(=O)(=O)c1ccc([C@H](CC#N)NC(=O)c2ccc(N3C[C@@H](Oc4ccc(-n5ccnc5)cc4)C[C@H]3COC(F)F)cc2)cc1` [Example 5, 4-((2S,4S)-4-(4-(1H-imidazol-1-yl)phenoxy)-2-((difluoromethoxy)methyl)pyrrolidin-1-yl)-N-((S)-2-cyano-1-(4-(ethylsulfonyl)phenyl)ethyl)benzamide], which IC50 is on record?
Answer: Its IC50 is 36.1 nM.

Question: With `CCS(=O)(=O)c1ccc([C@H](CC#N)NC(=O)c2ccc(N3C[C@@H](Oc4ccc(N)cc4)C[C@H]3COC(F)F)cc2)cc1` [Example 7, 4-((2S,4S)-4-(4-aminophenoxy)-2-((difluoromethoxy)methyl)pyrrolidin-1-yl)-N-((S)-2-cyano-1-(4-(ethylsulfonyl)phenyl)ethyl)benzamide] as the compound, how does the IC50 read?
Answer: The IC50 was 57.5 nM.

Question: Which IC50 does the source give for `CCS(=O)(=O)c1ccc([C@H](CC#N)NC(=O)c2ccc(N3C[C@@H](Oc4ccc(OC(F)(F)F)cn4)C[C@H]3COC(F)F)cc2)cc1` [Example 8, N-((S)-2-cyano-1-(4-(ethylsulfonyl)phenyl)ethyl)-4-((2S,4S)-2-((difluoromethoxy)methyl)-4-((5-(trifluoromethoxy)pyridin-2-yl)oxy)pyrrolidin-1-yl)benzamide] here?
Answer: The IC50 was 18.8 nM.

Question: For `CCS(=O)(=O)c1ccc([C@H](CC#N)NC(=O)c2ccc(N3C[C@@H](Oc4ccc(OC(F)F)nc4)C[C@H]3COC(F)F)cc2)cc1` [Example 9, N-((S)-2-cyano-1-(4-(ethylsulfonyl)phenyl)ethyl)-4-((2S,4S)-2-((difluoromethoxy)methyl)-4-((6-(difluoromethoxy)pyridin-3-yl)oxy)pyrrolidin-1-yl)benzamide], which IC50 is on record?
Answer: The IC50 was 25.8 nM.

Question: Which IC50 does the source give for `CCS(=O)(=O)c1ccc([C@H](CC#N)NC(=O)c2ccc(N3C[C@@H](Oc4ccc(OC)nc4)C[C@H]3COC(F)F)cc2)cc1` [Example 10, N-((S)-2-cyano-1-(4-(ethylsulfonyl)phenyl)ethyl)-4-((2S,4S)-2-((difluoromethoxy)methyl)-4-((6-methoxypyridine-3-yl)oxy)pyrrolidin-1-yl)benzamide] here?
Answer: The IC50 was 19 nM.

Question: Which IC50 does the source give for `CCS(=O)(=O)c1ccc([C@H](CC#N)NC(=O)c2ccc(N3C[C@@H](Oc4ccc(OC(F)(F)F)nc4)C[C@H]3COC(F)F)cc2)cc1` [Example 11, N-((S)-2-cyano-1-(4-(ethylsulfonyl)phenyl)ethyl)-4-((2S,4S)-2-((difluoromethoxy)methyl)-4-((6-(trifluoromethoxy)pyridin-3-yl)oxy)pyrrolidin-1-yl)benzamide] here?
Answer: The IC50 was 27 nM.

Question: For `CCS(=O)(=O)c1ccc([C@@H](CC#N)NC(=O)c2ccc(N3C[C@@H](Oc4ccc(OC(F)F)cc4)C[C@H]3COC(F)F)cc2)cc1` [Example 12, N-((R)-2-cyano-1-(4-(ethylsulfonyl)phenyl)ethyl)-4-((2S,4S)-2-((difluoromethoxy)methyl)-4-(4-(difluoromethoxy)phenoxy)pyrrolidin-1-yl)benzamide], which IC50 is on record?
Answer: The IC50 was 21.5 nM.

Question: Which IC50 does the source give for `CCS(=O)(=O)c1ccc([C@H](CC#N)NC(=O)c2ccc(N3C[C@@H](Oc4ccc(OC(F)F)cc4)C[C@H]3COC(F)F)cc2)nc1` [Example 13, N-((S)-2-cyano-1-(5-(ethylsulfonyl)pyridin-2-yl)ethyl)-4-((2S,4S)-2-((difluoromethoxy)methyl)-4-(4-(difluoromethoxy)phenoxy)pyrrolidin-1-yl)benzamide] here?
Answer: The IC50 was 31.4 nM.

Question: `CCS(=O)(=O)c1ccc([C@H](CC#N)NC(=O)c2ccc(N3C[C@@H](Oc4ccc(C)nc4)C[C@H]3COC(F)F)cc2)cc1` [Example 15, N-((S)-2-cyano-1-(4-(ethylsulfonyl)phenyl)ethyl)-4-((2S,4S)-2-((difluoromethoxy)methyl)-4-((6-methylpyridin-3-yl)oxy)pyrrolidin-1-yl)benzamide] was tested. Which IC50 did it give?
Answer: Its IC50 is 78.7 nM.

Question: For `CCS(=O)(=O)c1ccc([C@@H](CC#N)NC(=O)c2ccc(N3C[C@@H](Oc4ccc(OC(F)(F)F)cn4)C[C@H]3COC(F)F)cc2)cc1` [Example 17, N-((R)-2-cyano-1-(4-(ethylsulfonyl)phenyl)ethyl)-4-((2S,4S)-2-((difluoromethoxy)methyl)-4-((5-(trifluoromethoxy)pyridin-2-yl)oxy)pyrrolidin-1-yl)benzamide], which IC50 is on record?
Answer: The IC50 was 14.9 nM.

Question: Which IC50 does the source give for `CCS(=O)(=O)c1ccc([C@H](CC#N)NC(=O)c2ccc(N3C[C@@H](Oc4ccc(OC(F)(F)F)cn4)C[C@H]3COC(F)F)nc2)cc1` [Example 18] here?
Answer: The IC50 was 25.9 nM.

Question: For `CCS(=O)(=O)c1ccc([C@H](CC#N)NC(=O)c2ccc(N3C[C@@H](Oc4ccc(OC(C)C)nc4)C[C@H]3COC(F)F)cc2)cc1` [Example 20, N-((S)-2-cyano-1-(4-(ethylsulfonyl)phenyl)ethyl)-4-((2S,4S)-2-((difluoromethoxy)methyl)-4-((6-isopropoxypyridin-3-yl)oxy)pyrrolidin-1-yl)benzamide], which IC50 is on record?
Answer: The IC50 was 30 nM.

Question: `CCS(=O)(=O)c1ccc([C@H](CC#N)NC(=O)c2ccc(N3C[C@@H](Oc4ccc(Cl)cc4)C[C@H]3COC(F)F)cc2)cc1` [Example 21, 4-((2S)-4-(4-chlorophenoxy)-2-((difluoromethoxy)methyl)pyrrolidin-1-yl)-N-((S)-2-cyano-1-(4-(ethylsulfonyl)phenyl)ethyl)benzamide] was tested. Which IC50 did it give?
Answer: The IC50 was 2 nM.

Question: For `CCS(=O)(=O)c1ccc([C@H](CC#N)NC(=O)c2ccc(N3C[C@@H](Oc4ccc(C#N)cc4)C[C@H]3COC(F)F)cc2)cc1` [Example 24, N-((S)-2-cyano-1-(4-(ethylsulfonyl)phenyl)ethyl)-4-((2S,4S)-4-(4-cyanophenoxy)-2-((difluoromethoxy)methyl)pyrrolidin-1-yl)benzamide], which IC50 is on record?
Answer: Its IC50 is 19 nM.

Question: How did the IC50 turn out when `CCS(=O)(=O)c1ccc([C@H](CC#N)NC(=O)c2ccc(N3C[C@@H](Oc4ccc(C(N)=O)cc4)C[C@H]3COC(F)F)cc2)cc1` [Example 25, 4-((2S,4S)-4-(4-carbamoylphenoxy)-2-((difluoromethoxy)methyl)pyrrolidin-1-yl)-N-((S)-2-cyano-1-(4-(ethylsulfonyl)phenyl)ethyl)benzamide] was run?
Answer: The IC50 was 66 nM.

Question: With `CCS(=O)(=O)c1ccc([C@H](CC#N)NC(=O)c2ccc(N3C[C@@H](Oc4ccc(C(O)(C(F)(F)F)C(F)(F)F)cc4)C[C@H]3COC(F)F)cc2)cc1` [Example 26, N-((S)-2-cyano-1-(4-(ethylsulfonyl)phenyl)ethyl)-4-((2S,4S)-2-((difluoromethoxy)methyl)-4-(4-(1,1,1,3,3,3-hexafluoro-2-hydroxypropan-2-yl)phenoxy)pyrrolidin-1-yl)benzamide] as the compound, how does the IC50 read?
Answer: Its IC50 is 23 nM.

Question: For `CCS(=O)(=O)c1ccc([C@H](CC#N)NC(=O)c2ccc(N3C[C@@H](Oc4ccc(F)cc4)C[C@H]3COC(F)F)cc2)cc1` [Example 28, N-((S)-2-cyano-1-(4-(ethylsulfonyl)phenyl)ethyl)-4-((2S,4S)-2-((difluoromethoxy)methyl)-4-(4-fluorophenoxy)pyrrolidin-1-yl)benzamide], which IC50 is on record?
Answer: The IC50 was 24 nM.

Question: With `CCS(=O)(=O)c1ccc([C@H](CC#N)NC(=O)c2ccc(N3C[C@H](NCC4CCC(F)(F)CC4)C[C@H]3COC(F)F)cc2)cc1` [Example 31] as the compound, how does the IC50 read?
Answer: The IC50 was 59.8 nM.

Question: For `CCS(=O)(=O)c1ccc([C@H](CC#N)NC(=O)c2ccc(N3C[C@H](N(C)CC4CCC(F)(F)CC4)C[C@H]3COC(F)F)cc2)cc1` [Example 32], which IC50 is on record?
Answer: Its IC50 is 61.1 nM.

Question: Which IC50 does the source give for `CCS(=O)(=O)c1ccc([C@H](CC#N)NC(=O)c2ccc(N3C[C@@H](OCc4ccc(OC(F)(F)F)cc4)C[C@H]3COC(F)F)cc2)cc1` [Example 39, N—((S)-2-cyano-1-(4-(ethylsulfonyl)phenyl)ethyl)-4-((2S,4S)-2-((difluoromethoxy)methyl)-4-((4-(trifluoromethoxy)benzyl)oxy)pyrrolidin-1-yl)benzamide] here?
Answer: Its IC50 is 67.5 nM.

Question: With `CCS(=O)(=O)c1ccc([C@H](CC#N)NC(=O)c2ccc(N3C[C@@H](Oc4ccc(C5CC5)cn4)C[C@H]3COC(F)F)cc2)cc1` [Example 40, N—((S)-2-cyano-1-(4-(ethylsulfonyl)phenyl)ethyl)-4-((2S,4S)-4-((5-cyclopropylpyridin-2-yl)oxy)-2-((difluoromethoxy)methyl)pyrrolidin-1-yl)benzamide] as the compound, how does the IC50 read?
Answer: The IC50 was 21 nM.

Question: For `CCS(=O)(=O)c1ccc([C@H](CC#N)NC(=O)c2ccc(N3C[C@@H](Oc4ccc(OC)cn4)C[C@H]3COC(F)F)cc2)cc1` [Example 41, N—((S)-2-cyano-1-(4-(ethylsulfonyl)phenyl)ethyl)-4-((2S,4S)-2-((difluoromethoxy)methyl)-4-((5-methoxypyridin-2-yl)oxy)pyrrolidin-1-yl)benzamide], which IC50 is on record?
Answer: The IC50 was 17 nM.

Question: With `CCS(=O)(=O)c1ccc([C@H](CC#N)NC(=O)c2ccc(N3C[C@@H](Oc4ccc(-n5cnc(C)c5)cc4)C[C@H]3COC(F)F)cc2)cc1` [Example 45, N—((S)-2-cyano-1-(4-(ethylsulfonyl)phenyl)ethyl)-4-((2S,4S)-2-((difluoromethoxy)methyl)-4-(4-(4-methyl-1H-imidazol-1-yl)phenoxy)pyrrolidin-1-yl)benzamide] as the compound, how does the IC50 read?
Answer: The IC50 was 43 nM.
